According to US11142533B2, “Macrocycles for use in treating disease” (TURNING POINT THERAPEUTICS, INC., priority 2019, dated 2021):
pIC50: −log10 of the molar value. Entries after “also recorded” stand apart in the source; their conditions may differ.

Columns and labels:
ALK (G1269A) = target: T1, ALK (G1269A) (Homo sapiens, UniProt Q9UM73, G1269A); test: Biochemical kinase assay (Reaction Biology); conditions: 10 μM ATP
T1 construct: purchased Reaction Biology Corporation (contract assay)

ALK (delete G1202) = target: T2, ALK (delete G1202) (Homo sapiens, UniProt Q9UM73, DEL1202-1202); test: Biochemical kinase assay (Reaction Biology); conditions: 10 μM ATP
T2 construct: purchased Reaction Biology Corporation (contract assay)

ALK (S1206R) = target: T3, ALK (S1206R) (Homo sapiens, UniProt Q9UM73, S1206R); test: Biochemical kinase assay (Reaction Biology); conditions: 10 μM ATP
T3 construct: purchased Reaction Biology Corporation (contract assay)

ALK (C1156Y) = target: T4, ALK (C1156Y) (Homo sapiens, UniProt Q9UM73, C1156Y); test: Biochemical kinase assay (Reaction Biology); conditions: 10 μM ATP
T4 construct: purchased Reaction Biology Corporation (contract assay)

ALK (F1174L) = target: T5, ALK (F1174L) (Homo sapiens, UniProt Q9UM73, F1174L); test: Biochemical kinase assay (Reaction Biology); conditions: 10 μM ATP
T5 construct: purchased Reaction Biology Corporation (contract assay)

ALK (R1275Q) = target: T6, ALK (R1275Q) (Homo sapiens, UniProt Q9UM73, R1275Q); test: Biochemical kinase assay (Reaction Biology); conditions: 10 μM ATP
T6 construct: purchased Reaction Biology Corporation (contract assay)

ALK (L1198F/L1196M) = target: T7, ALK (L1198F/L1196M) (Homo sapiens, UniProt Q9UM73, L1196M/L1198F); test: Biochemical kinase assay (Reaction Biology); conditions: 10 μM ATP
T7 construct: purchased Reaction Biology Corporation (contract assay)

ALK (F1174C) = target: T8, ALK (F1174C) (Homo sapiens, UniProt Q9UM73, F1174C); test: Biochemical kinase assay (Reaction Biology); conditions: 10 μM ATP
T8 construct: purchased Reaction Biology Corporation (contract assay)

ALK (V1180L) = target: T9, ALK (V1180L) (Homo sapiens, UniProt Q9UM73, V1180L); test: Biochemical kinase assay (Reaction Biology); conditions: 10 μM ATP
T9 construct: purchased Reaction Biology Corporation (assay run there)

ALK (T1151-L1152insT) = target: T10, ALK (T1151-L1152insT) (Homo sapiens, UniProt Q9UM73, INS1151T); test: Biochemical kinase assay (Reaction Biology); conditions: 10 μM ATP
T10 construct: purchased Reaction Biology Corporation (contract assay)

ALK (E1210K) = target: T11, ALK (E1210K) (Homo sapiens, UniProt Q9UM73, E1210K); test: Biochemical kinase assay (Reaction Biology); conditions: 10 μM ATP
T11 construct: purchased Reaction Biology Corporation (contract assay)

ALK (L1152R) = target: T12, ALK (L1152R) (Homo sapiens, UniProt Q9UM73, L1152R); test: Biochemical kinase assay (Reaction Biology); conditions: 10 μM ATP
T12 construct: purchased Reaction Biology Corporation (contract assay)

[1] = target: T13, Ba/F3 cell-derived tumors with the EML4-ALK L1198F/G1202R fusion (Homo sapiens, UniProt Q9UM73, G1202R/L1198F)
T13 sequence (Q9UM73 with tags, fused parts or gaps L1198F/G1202R): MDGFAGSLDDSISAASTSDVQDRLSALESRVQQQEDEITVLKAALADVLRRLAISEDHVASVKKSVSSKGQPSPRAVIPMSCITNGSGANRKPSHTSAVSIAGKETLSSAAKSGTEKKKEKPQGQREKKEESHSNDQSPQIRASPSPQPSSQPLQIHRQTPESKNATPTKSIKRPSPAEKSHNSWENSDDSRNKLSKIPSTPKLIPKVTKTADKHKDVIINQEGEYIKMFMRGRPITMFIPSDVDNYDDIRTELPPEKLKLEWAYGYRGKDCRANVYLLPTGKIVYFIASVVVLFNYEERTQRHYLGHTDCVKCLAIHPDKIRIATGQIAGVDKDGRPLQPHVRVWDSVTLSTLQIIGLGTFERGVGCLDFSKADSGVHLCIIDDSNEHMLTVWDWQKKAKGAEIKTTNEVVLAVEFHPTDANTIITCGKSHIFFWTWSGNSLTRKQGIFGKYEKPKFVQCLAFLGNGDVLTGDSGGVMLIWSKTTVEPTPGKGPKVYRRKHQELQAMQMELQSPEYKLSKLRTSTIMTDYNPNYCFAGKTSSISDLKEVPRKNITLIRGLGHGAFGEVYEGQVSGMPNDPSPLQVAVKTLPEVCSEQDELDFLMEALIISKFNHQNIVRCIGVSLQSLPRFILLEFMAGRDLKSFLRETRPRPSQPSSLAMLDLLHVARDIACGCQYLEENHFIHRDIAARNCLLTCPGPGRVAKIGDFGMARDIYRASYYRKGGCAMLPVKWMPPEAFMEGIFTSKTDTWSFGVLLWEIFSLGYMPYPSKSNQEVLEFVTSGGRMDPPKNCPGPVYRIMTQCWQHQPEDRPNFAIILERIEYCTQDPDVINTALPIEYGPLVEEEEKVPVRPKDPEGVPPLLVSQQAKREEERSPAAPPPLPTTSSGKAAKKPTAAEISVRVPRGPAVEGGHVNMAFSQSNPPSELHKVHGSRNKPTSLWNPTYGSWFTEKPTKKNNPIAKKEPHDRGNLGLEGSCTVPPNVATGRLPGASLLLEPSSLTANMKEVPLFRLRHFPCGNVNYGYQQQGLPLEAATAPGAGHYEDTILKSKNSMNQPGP

[2] = target: T14, ALK fusion protein in Ba/F3 cell-derived xenograft tumors with the EML4-ALK L1196M/G1202R fusion (Homo sapiens, UniProt Q9UM73, G1202R/L1196M); test: In vivo pharmacodynamic study, tumor immunoblotting; parameters: species or system mice; conditions: for ALK phosphorylation level compared to control: 0.6, 2, or 5 mg/kg
T14 construct: expressed in transfected cells; host or cells: Ba/F3 cells (lentiviral transduction), implanted subcutaneously in SCID/Beige mice; the other entry of the earlier key: EML4 (Q9HC35, Echinoderm microtubule-associated protein-like 4)
Description: Mice bearing xenograft tumors were humanely euthanized and tumors were resected and snap frozen in liquid nitrogen and stored at −80° C. Frozen tumor samples were processed at 4° C. in 1× Cell Lysis Buffer (Cell Signaling Technologies) to extract proteins. SDS loading samples were prepared by addition of 4×LDS Sample Buffer and 10× Reducing Reagent (Life Technologies, Inc) to protein lysate. Tumor SDS protein samples were processed by SDS-PAGE and immunoblotted with rabbit anti-phosphorylated ALK Y1282/1283, rabbit anti-phosphorylated ALK Y1604, rabbit anti-ALK and mouse anti-actin antibodies (Cell Signaling Technologies). The signals from immunoblot were detected by C-DiGit Blot Scanner from LI-COR and the signal intensity were quantified using the Image Studio Digit software (LI-COR).
As the control, the expression level of actin was not affected by Compound 1 treatment.

[3] = single oral dose 10 mg/kg, 2 hours post dose, tumor immunoblot, 10 mg/kg

SMILES | pIC50 (ALK (G1269A)) | pIC50 (ALK (delete G1202)) | pIC50 (ALK (S1206R)) | pIC50 (ALK (C1156Y)) | pIC50 (ALK (F1174L)) | pIC50 (ALK (R1275Q)) | pIC50 (ALK (L1198F/L1196M)) | pIC50 (ALK (F1174C)) | pIC50 (ALK (V1180L)) | pIC50 (ALK (T1151-L1152insT)) | pIC50 (ALK (E1210K)) | pIC50 (ALK (L1152R)) | body weight ([1]; 2, 5, 10 mg/kg BID, after 7 days of treatment) | Tumor growth inhibition (TGI) ([1]; all three dose levels of 2, 5, and 10 mg/kg BID, after 7 days of treatment) | tumor response at the end of study ([1]; all three groups (2, 5, 10 mg/kg BID), day 14 post inoculation) | ALK phosphorylation level compared to control ([2]; at 12 hours) | ALK phosphorylation level compared to control ([2]; each dose, at 2 hours) | level of ALK fusion expression vs vehicle [2, 3] | level of phosphorylation of ALK fusions at Y1282/1283 vs vehicle [2, 3] | level of phosphorylation of ALK fusions at Y1604 vs vehicle [2, 3]
O=C1NCC2(CC2)COc2ccc(F)cc2CN2c3nc4c1cnn4cc3OC[C@H]2C(F)F [Compound 2, (16′S)-16′-(Difluoromethyl)-12′-fluoro-4′H,5′H,6′H,8′H,14′H,16′H,17′H-spiro[cyclopropane-1,7′-[1,19](metheno)[1,4]oxazino[3,4-j]pyrazolo[4,3-g][1,5,9,11]benzoxatriazacyclotetradecin]-4′-one] | 8.89 | 9.35 | 9.51 | 9.96 | 9.38 | 9.14 | 10.00 | 9.04 | 9.29 | 9.07 | 9.68 | 9.08 |  |  |  |  |  |  |  | 
CC1(C)COc2ccc(F)cc2CN2c3nc4c(cnn4cc3OC[C@H]2C(F)F)C(=O)N1 [Compound 1, (4S)-4-(Difluoromethyl)-8-fluoro-13,13-dimethyl-3,4,13,14-tetrahydro-6H-18,1-(metheno)[1,4]oxazino[3,4-i]pyrazolo[4,3-f][1,4,8,10]benzoxatriazacyclotridecin-15(12H)-one] |  |  |  |  |  |  |  |  |  |  |  |  | no body weight loss | 200% | complete regression | only showed reduction at 12 hours at the highest dose | significantly reduced | reduction; also recorded: reduced | inhibition of phosphorylation; also recorded: reduced | inhibition of phosphorylation; also recorded: reduced
